Measurements: US9340577B2, “HLA binding motifs and peptides and their uses” (priority 1992, dated 2016)
No end group written: not given here.

Assays:
Test in all cases: biochemical
Type in all cases: binding
HLA-A11 (A*1101) = HLA-A11 (A*1101) (Homo sapiens, UniProt P04439, A114D/D185E/E176A/F33Y/L180Q/S129P/T187R)
A31 (A*3101) = A31 (A*3101) (Homo sapiens, UniProt P04439, A270S/D185E/E176V/E277Q/F33T/G231S/G80R/H175R/I121M/I218V/I322F/K168Q/L300P/L318F/M331R/P217A/Q94H/R138Q/T323A/T345S/T97I/V358M)
A*6801 = A*6801 (Homo sapiens, UniProt P04439, A269V/D185E/E176V/E277Q/E87N/F33Y/G231S/I121M/I166T/I218V/L180W/L300P/L318F/N151K/P208A/P217A/Q86R/R169H/T345S)
A*3301 = A*3301 (Homo sapiens, UniProt P04439, A270S/D185E/E176V/E277Q/E87N/F33T/G231S/H175R/I121M/I218V/I322F/K168Q/K210R/L300P/L318F/M331R/P217A/Q86R/Q94H/R138Q/T323A/T345S/T97I/V358M/Y195H)

Compound	IC50 (HLA-A11 (A*1101))	IC50 (A31 (A*3101))	IC50 (A*6801)	IC50 (A*3301)	active receptor (HLA-A11 (A*1101))	binding class for HLA-A11.2 (HLA-A11 (A*1101))
CC(C)C[C@H](NC(=O)[C@H](CCCNC(=N)N)NC(=O)[C@H](CCC(=O)O)NC(=O)[C@H](CCC(N)=O)NC(=O)[C@H](CCCNC(=N)N)NC(=O)[C@H](C)NC(=O)[C@@H](N)CCCNC(=N)N)C(=O)N[C@@H](CCC(N)=O)C(=O)N[C@@H](CCCNC(=N)N)C(=O)O [Peptide 78.0311]	> 20000 nM	350 nM	> 20000 nM	> 20000 nM	–	–
CC(C)C[C@H](NC(=O)[C@H](CCCNC(=N)N)NC(=O)[C@H](Cc1ccccc1)NC(=O)CNC(=O)[C@@H](N)Cc1ccc(O)cc1)C(=O)NCC(=O)N[C@@H](Cc1ccccc1)C(=O)N[C@@H](CC(C)C)C(=O)N[C@@H](Cc1c[nH]cn1)C(=O)O [Peptide 1556.26]	19 nM	3250 nM	–	9910 nM	–	–
AIRKAILGHR [Peptide 9017.0223]	12600 nM	25 nM	7730 nM	1520 nM	–	–
ALQGLAQSR [Peptide 88.0398]	2760 nM	311 nM	11300 nM	> 20000 nM	–	–
AQVLHLLKR [Peptide 88.0364]	–	98 nM	19500 nM	3780 nM	–	–
AQVLHVLKR [Peptide 88.0335]	79 nM	–	6530 nM	64 nM	–	–
ATCALYWYR [Peptide 88.0371]	18 nM	19 nM	120 nM	15 nM	–	–
AVDLYHFLK [Peptide 940-06, reference compound]	–	–	–	–	10%	–
AVHLCTETSK [Peptide 88.0230]	87 nM	–	10500 nM	> 20000 nM	–	–
DFISFLSYFK [Peptide 88.0188]	30 nM	2630 nM	1.5 nM	5.7 nM	–	–
EFVSFLSALK [Peptide 1587.36]	–	–	22 nM	17 nM	–	–
EQMLIQPPK [Peptide 88.0378]	79 nM	> 20000 nM	732 nM	831 nM	–	–
ESKKKVESK [Peptide 9017.0082]	> 20000 nM	> 20000 nM	250 nM	> 20000 nM	–	–
FAFADLTVVY [Peptide 78.0115]	–	> 20000 nM	–	> 20000 nM	–	–
FVSFLSALK [Peptide 1587.37]	8.8 nM	4370 nM	13 nM	–	–	–
FVVYRDSIPK [Peptide 88.0026]	–	–	10 nM	–	–	–
GILRQRRAR [Peptide 9017.0114]	672 nM	177 nM	1480 nM	3190 nM	–	–
GLVFGILIKR [Peptide 9012.0244]	489 nM	2110 nM	–	2640 nM	–	–
GQVDYYGLYY [Peptide 1589.02]	53 nM	5400 nM	> 20000 nM	> 20000 nM	–	–
GQVNCKGIYY [Peptide 88.0209]	168 nM	2760 nM	> 20000 nM	> 20000 nM	–	–

Compound	IC50 (HLA-A11 (A*1101))	IC50 (A31 (A*3101))	IC50 (A*6801)	IC50 (A*3301)	active receptor (HLA-A11 (A*1101))	binding class for HLA-A11.2 (HLA-A11 (A*1101))
GTGISYGRK [Peptide 66.0062]	–	> 20000 nM	–	> 20000 nM	–	–
GTRQARKNR [Peptide 9017.0071]	8350 nM	24 nM	> 20000 nM	5070 nM	–	–
GTTLEQQYNK [Peptide 78.0044]	69 nM	> 20000 nM	3940 nM	> 20000 nM	–	–
HLVPWDQLFR [Peptide 9012.0236]	–	308 nM	21 nM	–	–	–
ILWKDIFHR [Peptide 9012.0201]	–	6.4 nM	235 nM	4.8 nM	–	–
ITIEKLLEK [Peptide 1587.31]	14 nM	–	16 nM	11000 nM	–	–
IVIKRRQQK [Peptide 9012.0206]	–	712 nM	3300 nM	9110 nM	–	–
IVKETELRK [Peptide 9012.0209]	–	> 20000 nM	1730 nM	> 20000 nM	–	–
IVVSAELPK [Peptide 1556.19]	93 nM	> 20000 nM	218 nM	> 20000 nM	–	–
IVYRDNNPY [Peptide 78.0292]	18 nM	> 20000 nM	–	> 20000 nM	–	–
KGLGISYGR [Peptide 1577.30]	415 nM	1.4 nM	> 20000 nM	> 20000 nM	–	–
KISEYRHYQY [Peptide 1571.14]	392 nM	7220 nM	11700 nM	> 20000 nM	–	–
KLTEDRWNK [Peptide 9017.0108]	42 nM	55 nM	> 20000 nM	> 20000 nM	–	–
KQGAMLAVFK [Peptide 88.0142]	–	519 nM	235 nM	> 20000 nM	–	–
KQIVMFLRY [Peptide 88.0330]	97 nM	4390 nM	2260 nM	6400 nM	–	–
KQLCDLLIR [Peptide 1513.14]	1680 nM	24 nM	> 20000 nM	6900 nM	–	–
KQSRAAKRR [Peptide 88.0325]	18800 nM	–	1120 nM	512 nM	–	–
KTVRLIKFLY [Peptide 9017.0197]	235 nM	1300 nM	12000 nM	6650 nM	–	–
KVCLRLLSK [Peptide 78.0302]	230 nM	525 nM	> 20000 nM	> 20000 nM	–	–
KVGPGGYPRRK [Peptide 73.0336]	–	–	–	> 20000 nM	–	–

Compound	IC50 (HLA-A11 (A*1101))	IC50 (A31 (A*3101))	IC50 (A*6801)	IC50 (A*3301)	active receptor (HLA-A11 (A*1101))	binding class for HLA-A11.2 (HLA-A11 (A*1101))
KVGSLQYLK [Peptide 66.0057]	–	–	–	> 20000 nM	–	–
KVSEFRWYRY [Peptide 78.0053]	24 nM	11 nM	1910 nM	7070 nM	–	–
LALTALIKPK [Peptide 9017.0227]	34 nM	–	3480 nM	> 20000 nM	–	–
LQHASTSTPK [Peptide 88.0224]	20 nM	5820 nM	–	> 20000 nM	–	–
LVYRDDFPK [Peptide 88.0280]	–	–	110 nM	–	–	–
MSFLTALKR [Peptide 1587.11]	26 nM	49 nM	2.4 nM	–	–	–
QQLLRREVY [Peptide E6-42]	–	–	–	–	–	weak affinity
QQQMFLGTVK [Peptide 88.0219]	13 nM	–	1460 nM	> 20000 nM	–	–
RQLKETELRK [Peptide 9012.0249]	–	> 20000 nM	> 20000 nM	12600 nM	–	–
RQRKIDWLIK [Peptide 9017.0247]	–	95 nM	> 20000 nM	> 20000 nM	–	–
RTEVYQFAFK [Peptide 78.0062]	–	1690 nM	3310 nM	9180 nM	–	–
SQIQYWQLIR [Peptide 88.0199]	84 nM	219 nM	–	7540 nM	–	–
TFPHAFPFDK [Peptide 88.0176]	–	4960 nM	200 nM	> 20000 nM	–	–
TTYAEPPK [Peptide 1556.11]	–	> 20000 nM	320 nM	> 20000 nM	–	–
TVTYSPALNK [Peptide 1556.40]	–	> 20000 nM	165 nM	> 20000 nM	–	–
TVYAEPPR [Peptide 1556.10]	–	8410 nM	21 nM	11800 nM	–	–
VQLDIQSTK [Peptide 78.0301]	216 nM	–	> 20000 nM	> 20000 nM	–	–
WTIVYIEYR [Peptide 9017.0117]	–	–	17 nM	92 nM	–	–
